In patent publication US20070128217A1 (priority 2003, published 2007):

Tests used:
[1] = system: control sera (pooled serum of ten healthy LUMC hospital workers; commercial negative donor pooled serum from the Dutch bloodbank); assay type: binding, human; design: Binding of Control serum LUMC to linear peptides / Binding of Control serum Blood-bank to linear peptides / Binding of Control serum LUMC to looped peptides / Binding of Control Serum Blood-Bank to Looped peptides / Binding of Control serum LUMC to linear peptides of the protein M of SARS-CoV Urbani / Binding of Control serum Blood-bank to linear peptides of the protein M of SARS-CoV Urbani / Binding of Control serum LUMC to looped peptides of the protein M of SARS-CoV Urbani / Binding of Control Serum Blood-Bank to Looped peptides of the protein M of SARS-CoV Urbani: unit not given here
[2] = system: rabbit serum obtained by immunizing a rabbit with the SARS-CoV strain Frankfurt 1; assay type: binding; design: Binding of a rabbit serum to linear peptides / Binding of a rabbit serum to looped peptides / Rabbit serum linear peptides / Rabbit serum looped peptides / Binding of a rabbit serum to linear peptides of protein N of SARS-CoV Urbani (Rabbit serum linear peptides) / Binding of a rabbit serum to looped/cyclic peptides of protein N of SARS-CoV Urbani (Rabbit serum looped peptides): unit not given here

Sequence	Binding of Control Serum Blood-Bank to Looped peptides [1]	Binding of Control serum Blood-bank to linear peptides [1]	Binding of Control serum LUMC to linear peptides [1]	Binding of Control serum LUMC to looped peptides [1]	Binding of a rabbit serum to linear peptides [2]	Binding of a rabbit serum to looped peptides [2]	other results
FFTLGSITAQPVKID	0.2	0.5	0.5	0.3	1.1	0.0	
FHPLADNKFALTCTS	0.8	0.8	0.8	0.8			Rabbit serum linear peptides [2]: 0.4; Rabbit serum looped peptides [2]: 0.2
YDYCIPYNSVTDTIV	0.5	0.6	0.7	0.6	0.1	0.5	
HTHNYDYCIPYNSVT	0.6	0.6	0.7	0.6	0.1	0.6	
HPLGRCDIKDLPKEI							Binding of Control Serum Blood-Bank to Looped peptides of the protein M of SARS-CoV Urbani [1]: 1.0; Binding of Control serum Blood-bank to linear peptides of the protein M of SARS-CoV Urbani [1]: 1.0; Binding of Control serum LUMC to linear peptides of the protein M of SARS-CoV Urbani [1]: 0.7; Binding of Control serum LUMC to looped peptides of the protein M of SARS-CoV Urbani [1]: 0.7; Rabbit serum linear peptides [2]: 0.2; Rabbit serum looped peptides [2]: 1.1
NSKKTTKLVVILRIG	0.7	0.4	0.9	0.7			Recognition of the peptide by the rabbit serum [2]: recognized
KTTKLVVILRIGTQV	0.7	0.4	0.5	0.7			Recognition of the peptide by the rabbit serum [2]: recognized
THNYDYCIPYNSVTD	0.7	0.5	0.6	0.7	0.1	0.6	
GGIAIAMACIVGLMW							Binding of Control Serum Blood-Bank to Looped peptides of the protein M of SARS-CoV Urbani [1]: 0.8; Binding of Control serum Blood-bank to linear peptides of the protein M of SARS-CoV Urbani [1]: 0.8; Binding of Control serum LUMC to linear peptides of the protein M of SARS-CoV Urbani [1]: 0.8; Binding of Control serum LUMC to looped peptides of the protein M of SARS-CoV Urbani [1]: 0.9; Rabbit serum linear peptides [2]: 0.2; Rabbit serum looped peptides [2]: 0.3
IFNKLVKDPPNVQIH	0.6	1.1	1.0	0.6	0.1	0.6	
ANYFVCWHTHNYDYC	0.5	0.7	0.7	0.6	0.1	0.5	
VANPAMDPIYDEPTT	0.5	0.4	0.2	0.5	0.1	0.5	
SYYKLGASQRVGTDS							Binding of Control Serum Blood-Bank to Looped peptides of the protein M of SARS-CoV Urbani [1]: 0.8; Binding of Control serum Blood-bank to linear peptides of the protein M of SARS-CoV Urbani [1]: 0.8; Binding of Control serum LUMC to linear peptides of the protein M of SARS-CoV Urbani [1]: 0.4; Binding of Control serum LUMC to looped peptides of the protein M of SARS-CoV Urbani [1]: 0.7; Rabbit serum linear peptides [2]: 0.4; Rabbit serum looped peptides [2]: 0.3
QVLKTMSLYMAISPK	0.4	0.9	0.7	0.4	0.1	0.5	
IDNASPASTVHATAT	0.7	0.8	0.7	0.6	0.5	0.3	
KKTTKLVVILRIGTQ	0.6	0.4	0.5	0.8			Recognition of the peptide by the rabbit serum [2]: recognized
INWVTGGIAIAMACI							Binding of Control Serum Blood-Bank to Looped peptides of the protein M of SARS-CoV Urbani [1]: 0.6; Binding of Control serum Blood-bank to linear peptides of the protein M of SARS-CoV Urbani [1]: 0.8; Binding of Control serum LUMC to linear peptides of the protein M of SARS-CoV Urbani [1]: 0.5; Binding of Control serum LUMC to looped peptides of the protein M of SARS-CoV Urbani [1]: 0.9; Rabbit serum linear peptides [2]: 0.5; Rabbit serum looped peptides [2]: 0.4
VKNLNSSEGVPDLLV	0.8	0.7	1.1	0.9	0.3	0.6	
VYVYSRVKNLNSSEG	0.8	0.5	0.8	0.8	0.3	0.4	
DGSSGVANPAMDPIY	0.5	0.9	0.8	0.4	0.1	0.6	
LKTMSLYMAISPKFT	0.6	0.7	0.6	0.6	0.1	0.4	
NGTITVEELKQLLEQ							Binding of Control Serum Blood-Bank to Looped peptides of the protein M of SARS-CoV Urbani [1]: 0.6; Binding of Control serum Blood-bank to linear peptides of the protein M of SARS-CoV Urbani [1]: 0.7; Binding of Control serum LUMC to linear peptides of the protein M of SARS-CoV Urbani [1]: 0.5; Binding of Control serum LUMC to looped peptides of the protein M of SARS-CoV Urbani [1]: 0.8; Recognition of the peptide by the rabbit serum [2]: recognized
SIVRQLFKPLTKKNY							Binding of Control Serum Blood-Bank to Looped peptides of the protein X3 of SARS-CoV Urbani [1]: 0.8; Binding of Control serum Blood-bank to linear peptides of the protein X3 of SARS-CoV Urbani [1]: 0.8; Binding of Control serum LUMC to linear peptides of the protein X3 of SARS-CoV Urbani [1]: 0.7; Binding of Control serum LUMC to looped peptides of the protein X3 of SARS-CoV Urbani [1]: 0.8; Rabbit serum linear peptides [2]: 0.3; Rabbit serum looped peptides [2]: 0.4
KNYSELDDEEPMELD							Binding of Control Serum Blood-Bank to Looped peptides of the protein X3 of SARS-CoV Urbani [1]: 0.6; Binding of Control serum Blood-bank to linear peptides of the protein X3 of SARS-CoV Urbani [1]: 0.7; Binding of Control serum LUMC to linear peptides of the protein X3 of SARS-CoV Urbani [1]: 0.6; Binding of Control serum LUMC to looped peptides of the protein X3 of SARS-CoV Urbani [1]: 0.8; Rabbit serum linear peptides [2]: 0.3; Rabbit serum looped peptides [2]: 0.2
